{"source": "patent US10808008B2", "about": "“Aromatic-cationic peptides and uses of same” (Cornell University, priority 2012, dated 2020)", "key": {"[1]": {"experiment": "Fluorescence spectroscopy of labelled peptide with other phospholipids", "format": "binding", "conditions": "POPA, DPPG, POPS, cardiolipin", "method": "1-palmitoyl-2-oleoyl-sn-glycero-3-phosphocholine (POPC), 1-palmitoyl-2-oleoyl-sn-glycero-3-phosphate (POPA), 1-palmitoyl-2-oleoyl-sn-glycero-3-phospho-L-serine (POPS), 1-palmitoyl-2-oleoyl-sn-glycero-3-phosphoethanolamine (PE), and 1,2-dipalmitoyl-sn-glycero-3-phospho-(1′-rac-glycerol) (DPPG) were obtained from Avanti Polar Lipids Inc (Alabaster, Ala.).\nChanges in the emission intensity of the [atn]SS-02 and the [ald]SS-02 were measured using a Hitachi F-4500 fluorescence spectrophotometer. The different solvents used to dissolve the various phospholipids (chloroform, methanol and ethanol) had negligible effect on the fluorescence spectrum of [atn]SS-02 and [ald]SS-02. All experiments were done in low ionic solution (deionized water) to optimize electrostatic interactions of peptides with phospholipids."}, "[2]": {"biological_target": "cytochrome c/cardiolipin complex (Equus caballus, UniProt P00004)", "sequence (P00004 2-105 limits assumed, one chain of several)": "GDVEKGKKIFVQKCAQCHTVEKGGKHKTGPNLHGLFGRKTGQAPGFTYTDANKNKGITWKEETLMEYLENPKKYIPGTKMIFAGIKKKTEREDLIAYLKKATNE", "experiment": "Soret circular dichroism of cytochrome c with cardiolipin", "format": "biochemical", "conditions": "10 μM cytochrome c, 30 μg/ml cardiolipin, peptide 1:1 with cytochrome c; pH 7.4", "method": "Circular dichroism (CD) was carried out to examine the effects of the peptides on protecting the heme environment of cytochrome c from the acyl chain of CL. For heme proteins, the Soret CD spectrum is strictly correlated with the heme pocket conformation. In particular, the negative 416-420 nm Cotton effect is considered diagnostic of Fe(III)-Met80 coordination in native cytochrome c (Santucci and Ascoli, 1997). […] CD spectra were obtained using AVIV CD Spectrometer Model 410.\nChanges in the Soret CD spectrum of cytochrome c (10 μM) were recorded in the absence (dotted line) and presence (dashed line) of 30 μg/ml CL, plus addition of different peptides (10 μM) (solid line) (FIG. 14). CD measurements were carried out using 20 mM HEPES, pH 7.5, at 25° C. and expressed as molar ellipticity (A) (m Deg). […] Accordingly, aromatic-cationic peptides of the present disclosure are useful for the prevention or treatment of diseases or disorders characterized by dysregulation of cardiolipin and/or cytochrome c, and/or diseases or disorders characterized by dysregulation of the cardiolipin/cytochrome c interaction. In addition, aromatic-cationic peptides of the present disclosure are useful to protect the heme environment of cytochrome c from the acyl chain of cardiolipin.\nCircular Dichroism (CD) spectra were collected with an AVIA 62 DS spectrophotometer equipped with a sample temperature controller. CD spectra of the Soret region (370-450 nm) were recorded with 10-mm path length cells containing 20 mM Hepes, pH 7.4, and 10 μM cytochrome c, in the presence or absence of 30 μg/ml cardiolipin and different SS peptide analogs (SS-02, [atn]SS-02, [ald]SS-02, and SS-31). The maximum lipid concentration was kept low to avoid spectral distortions due to excessive light scattering. All measurements were done at 25° C. All spectra were corrected for background, and the final spectrum shown represents the average of at least three experiments."}, "[3]": {"biological_target": "cardiolipin-cytochrome c complex (Equus caballus, UniProt P00004)", "sequence (P00004 2-105 limits assumed, one chain of several)": "as above", "experiment": "Cytochrome c reduction in the presence of cardiolipin", "format": "biochemical", "conditions": "40 μM peptide; 20 μM cytochrome c, 100 μg/ml cardiolipin, 50 μM ascorbate; 10% with cardiolipin alone", "method": "Reduction of cytochrome c (20 μM) was induced by the addition of glutathione (500 μM) in the absence or presence of CL (100 μg/ml) (FIG. 15A). Reduction of cytochrome c was monitored by absorbance at 550 nm using a 96-well UV-VIS plate reader (Molecular Devices). Addition of CL decreased the rate of cytochrome c reduction by half.\nThe time course of cytochrome c reduction by ascorbate was recorded at 550 nm and 570 nm using a 96-well plate reader (Molecular Devices, Sunnyvale, Calif.). For all reactions, cytochrome c was preincubated with cardiolipin in the presence or absence of SS peptides for 1 min. […] Ascorbate (50 μM) was added to initiate the reduction of cytochrome c, and the absorbance was recorded for 5 min. The rate of reduction was calculated based on slope of the change in absorbance intensity of 550 nm over 570 nm."}, "cytochrome c/CL complex": {"biological_target": "cytochrome c/CL complex (Equus caballus, UniProt P00004)", "sequence (P00004 2-105 limits assumed, one chain of several)": "as above", "experiment": "Peroxidase activity of cytochrome c/cardiolipin complex (Amplex Red)", "format": "biochemical", "conditions": "10 μM peptide; 2 μM cytochrome c; cardiolipin 100 μg/ml", "from_the_text": "The six coordination of the heme in cytochrome c prevents direct interaction of H2O2 with the catalytic metal site, and native cytochrome c in solution is a poor peroxidase. Upon interaction with CL, cytochrome c undergoes a structural change with rupture of the Fe-Met80 coordination. […] The mechanism of action of cytochrome c peroxidase is similar to that of other peroxidases, such as horse radish peroxidase (HRP). Thus it is possible to use the amplex red-HRP reaction to investigate cytochrome c peroxidase activity. In the presence of peroxidase, amplex red (AR) reacts with H2O2 to form the red-fluorescent oxidation product, resorufin (Ex/Em=571/585).\nCytochrome c (2 μM) was mixed with CL (25 μg/ml) and 10 μM H2O2 in 20 mM HEPES, pH 7.4. Amplex red (50 μM) was then added and fluorescence emission monitored in real time using Hitachi F4500 fluorescence spectrophotometer. Addition of amplex red elicited rapid increase in fluorescence signal due to resorufin formation, providing direct evidence for peroxidase activity of cytochrome c/CL complex (FIG. 19A).\nAssessment of cytochrome c peroxidase activity was achieved using the Amplex® Red assay (Invitrogen/Life Technologies, Carlsbad, Calif.). Amplex® Red is a reagent that reacts with H2O2 in a 1:1 stoichiometry to produce highly fluorescent resorufin (λex/λem=570/585) in the presence of a peroxidase. In this assay, cytochrome c is added in place of horseradish peroxidase. 2 μM cytochrome c was incubated with cardiolipin or cardiolipin-POPC liposomes (10 μg/ml) for 1 min in 20 mM HEPES (pH 7.4) or deionized water prior to the addition of 50 μM Amplex® Red reagent and 10 μM H2O2, and the reaction was allowed to proceed for an additional 5 minutes. The continuous time course data were obtained using Hitachi F-4500 fluorescence spectrophotometer. When comparing the different SS peptide analogs (10 μM) in inhibiting peroxidase activity cytochrome c (2 μM) in the presence of cardiolipin (100 μg/ml), a microplate spectrofluorometer (Molecular Devices, Sunnyvale, Calif.) was used. Horseradish peroxidase (HRP) was used for comparison, and the HRP concentration (0.001 U/ml) was optimized to match the rate of Amplex® Red peroxidation by cardiolipin-cytochrome c complex."}, "[4]": {"biological_target": "cytochrome c and cardiolipin (Equus caballus, UniProt P00004)", "sequence (P00004 2-105 limits assumed)": "as the sequence (P00004 2-105 limits assumed, one chain of several) above", "experiment": "Oxidation of ferrous cytochrome c by cardiolipin (A550)", "format": "biochemical", "conditions": "20 μM cytochrome c reduced by 50 μM ascorbic acid; 100 μg/ml cardiolipin", "method": "Cytochrome c (20 μM) was reduced by 50 μM ascorbic acid until all available functionally active cytochrome c was reduced. The reduction of cytochrome c was monitored by the appearance of a peak at 550 nm in its absorbance spectrum (Molecular Devices, Sunnyvale, Calif.). […] The rate of oxidation was calculated based on slope of the change in absorbance intensity of 550 nm over 570 nm."}, "cytochrome c [5]": {"biological_target": "T1, cytochrome c (Equus caballus, UniProt P00004)", "T1 sequence (P00004 2-105 limits assumed)": "as the sequence (P00004 2-105 limits assumed, one chain of several) above", "experiment": "Fluorescence quenching of labelled peptides by cytochrome c", "format": "binding, horse", "parameters": "from tissue; host or cells: horse heart", "conditions": "Example 22; additions of cytochrome c (2 μM)", "method": "Maximal fluorescence emission of SS-19 was monitored at 420 nm following excitation at 320 nm using Hitachi F-4500 fluorescence spectrophotometer.\nThe quenching by cytochrome c was not displaced by sequential additions of bovine serum albumin (FIG. 12C, A+arrows) (500 μg/ml). […] Accordingly, aromatic-cationic peptides of the present disclosure are useful for the prevention or treatment of diseases or disorders characterized by dysregulation of cytochrome c.\nFluorescence emission of SS-19 (10 μM) was monitored in real time (Ex/Em=320 nm/420 nm) using Hitachi F-4500 fluorescence spectrophotometer.\nInteraction of SS peptides with horse heart cytochrome c in the absence or presence of free cardiolipin or cardiolipin/POPC (1:1) liposomes (prepared as described in Example 22) was examined by fluorescence quenching of [atn]SS-02 (λex/λem=320/420 nm) and [ald]SS-02 (λex/λem=360/510 nm) upon addition of cytochrome c (using a Hitachi F-4500 fluorescence spectrophotometer). The solvents used to dissolve cardiolipin and POPC had negligible effect on cytochrome c-dependent quenching of these peptides. All experiments were done in low ionic solution (deionized water) or 20 mM Hepes pH 7.4."}, "cytochrome c [6]": {"biological_target": "T1, cytochrome c", "experiment": "Fluorescence quenching of labelled peptides by cytochrome c", "format": "binding, horse", "parameters": "from tissue; host or cells: horse heart", "conditions": "additions of 75 μg/ml BSA"}}, "data": [{"substance": "2′,6′-Dmt-D-Arg-Phe-Lys-NH2 [SS-02]", "values": [{"measurement": "specificity of peptide-phospholipid interaction", "setting": "[1]", "value": "specific for phospholipids with anionic headgroups"}, {"measurement": "loss of the negative Cotton peak at 419 nm caused by cardiolipin", "setting": "[2]", "value": "prevented"}, {"measurement": "rate of cytochrome c reduction in the presence of cardiolipin", "setting": "[3]", "value": "about 60%"}, {"measurement": "peroxidation rate of cytochrome c", "setting": "cytochrome c/CL complex", "value": "about 70 % of control"}, {"measurement": "oxidation of cytochrome c by cardiolipin (loss of the 550 nm peak)", "setting": "[4]", "value": "inhibition of cytochrome c oxidation"}]}, {"substance": "tetramethylrhodamine methyl ester [TMRM, reference compound]", "values": [{"measurement": "quenching of fluorescence by cytochrome c", "setting": "cytochrome c [5]", "value": "slightly quenched"}, {"measurement": "reversal of cytochrome c quenching by BSA", "setting": "cytochrome c [6]", "value": "completely reversed quenching"}]}]}
